We go through 7 molecules from US11291670B2, “Therapeutic approaches for treating Alzheimer disease and related disorders through a modulation of angiogenesis” (PHARNEXT, priority 2008, dated 2022).

Common to all, as to format: cell-based
Series [1] concerns rat primary cortical cells. As to the kind of experiment: human Aβ1-42 toxicity, LDH release in rat primary cortical neurons. The settings on record: Aβ1-42 10 μM 24 h, 1 hr pre-treatment; FIG. 3.
Procedure: Primary rat cortical neurons are cultured as described previously.
Briefly, Aβ1-42 peptide was reconstituted in define culture medium at 40 μM (mother solution) and was slowly shaked at +37° C. for 3 days in dark. The control medium was prepared in the same conditions.
After 10 days of neuron culture, drug was solved in culture medium (+0.1% DMSO) and then pre-incubated with neurons for 1 hour before the Aβ1-42 application (in a final volume per culture well of 100 μl). One hour after drug incubation, 100 μl of Aβ1-42 peptide was added to a final concentration of 10 μM diluted in presence of drug, in order to avoid further drug dilutions. Cortical neurons were intoxicated for 24 hours. Three separate cultures were performed per condition, 6 wells per condition.
BDNF (50 ng/ml) and Estradiol-β (100 and 150 nM) were used as positive control and reference compounds respectively.
The following conditions were assessed: • 1 CONTROL PLAQUE: 12 wells/condition • Negative Control: medium alone+0.1% DMSO • Intoxication: amyloid-β1-42 (10 μM) for 24 h • Positive control: BDNF (50 ng/ml) 1 hr followed by amyloid-β1-42 (10 μM) for 24 h • Reference compound: Estradiol (150 nM) 1 hr followed by amyloid-β1-42 (10 μM) for 24 h. • DRUG PLATE: 6 wells/condition • Negative Control: medium alone+0.1% DMSO • Intoxication: amyloid-β1-42 (10 μM) for 24 h • Drug 1: Drug 1-1 hr followed by amyloid-β1-42(10 μM) for 24 h • Drug 2: Drug 2-1 hr followed by amyloid-β1-42(10 μM) for 24 h Lactate Dehydrogenase (LDH) Activity Assay
This colorimetric assay for the quantification of cell toxicity is based on the measurement of lactate dehydrogenase (LDH) activity released from the cytosol of dying cells into the supernatant.
All values are expressed as mean±s.e.mean of the 3 cultures (n=6 per condition). Statistic analyses were done on the different conditions (ANOVA followed by the Dunnett's test when it was allowed, Statviewi software version 5.0).
Series [2] deals with Human Brain Microvascular Endothelial Cells (HBMEC). Put plainly: human Aβ1-42 injury in HBMEC, total length of capillary network. The settings on record: for Effect on intoxication: total length of capillary network in beta-amyloid intoxicated HBMEC cultures: Aβ1-42 2.5 μM, combination versus each drug alone at the same concentrations, FIG. 4-6; for Prevention of Aβ1-42 intoxication in HBMEC (capillary network): drug pretreatment, FIG. 2B, 2C. The procedure:
Human brain microvascular endothelial cerebral cells (HBMEC, ScienCell Ref: 1000, frozen at passage 10) were rapidly thawed in a waterbath at +37° C.
The control medium was prepared in the same conditions.
After 3 days, this human amyloid peptide was used on HBMEC at 2.5 μM diluted in control medium (optimal incubation time). The Aβ1-42 peptide was added 2 hours after HBMEC seeding on matrigel for 18 hours incubation.
Capillary Network Quantification
Per well, 2 pictures with 4× lens were taken using InCell Analyzer™ 1000 (GE Healthcare) in light transmission. All images were taken in the same conditions. Analysis of the angiogenesis networks was done using Developer software (GE Healthcare). The total length of capillary network was assessed.
All values are expressed as mean±s.e.mean of the 3 cultures (n=6 per condition). Statistic analyses were done on the different conditions performing an ANOVA followed by the Dunnett's test when it was allowed (Statview software version 5.0). The values (as %) inserted on the graphs show the amyloid toxicity evolution. Indeed, the amyloid toxicity was taken as the 100% and the test compound effect was calculated as a % of this amyloid toxicity.

Series [3] relates to rat endothelial cerebral cells. As to the kind of experiment: Aβ25-35 peptide toxicity, LDH release from rat endothelial cerebral cells. The settings on record: FIG. 1; for Protective effect against beta-amyloid peptide toxicity on LDH release (prevention of Aβ25-35 intoxication): Aβ25-35 30 μM, 3 days, drug added 1 hour before; for Spontaneous cell death in the culture medium: rat endothelial cerebral cells, LDH release. The protocol:
Primo culture of rat endothelial cerebral cells (Vect-Horus SAS, Marseille) is cultivated on passage 0. At confluence, endothelial cells are dissociated with trypsin EDTA (Pan Biotech Ref: P10-023100). Cells are seeded at a density of 25 000 cells/well in 96 well-plates (wells are coated with 30 μl of type I rat collagen at 1.5 mg/ml, Vect-Horus SAS, Marseille) and are cultured in MCBD 131 medium (M−131-500, Invitrogen) supplemented with 1% of microvascular growth supplement (MVGS, S-005-25, Invitrogen). Cells are cultured at 37° C. in a humidified air (95%)/CO2(5%) atmosphere. Half of the medium is changed every other day with fresh medium. After 4 days, drugs are added to the cell culture medium, at different concentrations, solved in DMSO 0.1% or water.
Cells are then intoxicated with 30 μM of β-amyloid (25-35; Sigma) together with drugs in the same culture medium. Cells are then intoxicated during 3 days.
For each culture, after 3 days of intoxication, the supernatant is collected and analyzed with Cytotoxicity Detection Kit (LDH, Roche Applied Sciences). This colorimetric assay for the quantification of cell death is based on the measurement of lactate dehydrogenase (LDH) activity released from the cytosol of damaged cells into the supernatant. The optic density (DO) is assessed by spectrophotometer at 492 nm wavelength by a multiscan apparatus (Thermo, Ref Ascent).
Results presented in FIG. 1 are extracted from two independent cultures, 6 wells per condition. All values are expressed as mean±s.e.m. A bilateral Student's t test analysis is performed on raw data. Results are expressed in percentage of cell viability, compared to the control (vehicle).
Drugs are incubated with rat primary cerebral endothelial cells one hour before Aβ25-35 30 μM intoxication that lasts 3 days.
Three days after this incubation, LDH release in the culture medium is quantified, reflecting the level of cell death.

Take `NCC(CC(=O)O)c1ccc(Cl)cc1` (racemic) [Baclofen]: in series [1], the “Change of LDH release (Aβ1-42 amyloid injury) in rat primary cortical cells” value (“Change of LDH release” for short) is recorded as −86%. For the same molecule, in series [2], the “Effect on intoxication: total length of capillary network in beta-amyloid intoxicated HBMEC cultures” value (from here on “Effect on intoxication: total length”) is recorded as “no significant effect” and the “Prevention of Aβ1-42 intoxication in HBMEC (capillary network)” value is given as “significantly prevented”.

On to `NCC(CC(=O)O)c1ccc(Cl)cc1` (stereo not drawn) [Baclofen (−), Baclofen], for which, in series [3], the “Protective effect against beta-amyloid peptide toxicity on LDH release (prevention of Aβ25-35 intoxication)” value (“Protective effect” below) is listed as “significantly prevented”.

For `Cc1oncc1C(=O)Nc1ccc(C(F)(F)F)cc1` [Leflunomide], in series [3], the “Protective effect” value was “significantly prevented” and the “Spontaneous cell death in the culture medium” value is given as “decrease spontaneous cell death”. The “Change of LDH release” value in series [1] is given as −62%.

In the case of `C[C@@H]1CC(=O)NN=C1c1ccc(NN=C(C#N)C#N)cc1` [Levosimendan], in series [2], the “Effect on intoxication: total length” value was “no significant effect”.

Regarding `Cc1noc(NS(=O)(=O)c2ccc(N)cc2)c1C` [Sulfisoxazole], the “Protective effect” value in series [3] is on record as “significantly prevented”. In series [2], the “Effect on intoxication: total length” value is given as “no significant effect”.

`CN(C/C=C/C#CC(C)(C)C)Cc1cccc2ccccc12` [Terbinafine]: in series [3], the “Protective effect” value is reported as “significantly prevented” and the “Spontaneous cell death in the culture medium” value is given as “decrease spontaneous cell death”. In series [2], the “Effect on intoxication: total length” value is reported as “no significant effect” and the “Prevention of Aβ1-42 intoxication in HBMEC (capillary network)” value is listed as “significantly prevented”.

B1: BDNF: BDNF (50 ng/ml), positive control for neuroprotection (protein, UniProt P23560 19-247, looked up)
Neurotrophic factor BDNF …: APMKEANIRGQGGLAYPGVRTHGTLESVNGPKAGSRGLTSLADTFEHVIEELLDEDQKVRPNEENNKDADLYTSRVMLSSQVPLEPPLLFLLEEYKNYLDAANMSMRVRRHSDPARRGELSVCDSISEWVTAADKKTAVDMSGGTVTVLEKVPVSKGQLKQYFYETKCNPMGYTKEGCRGIDKRHWNSQCRTTQSYVRALTMDSKKRIGWRFIRIDTSCVCTLTIKRGR
For B1, the “Change of LDH release” value in series [1] is −95%.
